Drawing on ChEMBL document CHEMBL1143860, “Synthesis and biological activity of phosphatidylinositol-3,4,5-trisphosphorothioate” (Bioorg Med Chem Lett, 2008), this text covers Activity for one compound.

The test system of the assay is A6. As to the kind of experiment: Agonist activity at […] expressed in A6 cells assessed as increase in insulin-stimulated sodium transport at 50 uM. Format: functional, cell-based.

Each structure is given as a SMILES string. Calls of active or inactive are those of the source. The calls are words filed in the database; no cut-off is given here.

As to `CCCCCCCCCCCCCCCC(=O)OC[C@H](COP(=O)(O)O[C@H]1[C@H](O)[C@@H](OP(O)(O)=S)[C@H](OP(O)(O)=S)[C@@H](OP(O)(O)=S)[C@H]1O)OC(=O)CCCCCCCCCCCCCCC`, the result was Active.
